From patent US20260103458A1, “Inhibitors of CDK8 and CDK19” (University of Dundee, priority 2022, published 2026)

Assays:
CDK19 = target: T1, CDK19 (Homo sapiens, UniProt Q9BWU1); assay: Kinase competition binding assay (Kd, qPCR readout), CDK19; settings: in vitro binding; 11-point 3-fold dilution series; read-out: pKd (CDK19) (converted)
T1 construct: made in house; host or cells: E. coli BL21-derived host (T7 phage display) or HEK-293 cells
Experimental: (§1) Compounds 1 to 11 were tested for their in vitro binding activity against CDK8 and CDK19.
(§2) Kinase assays: Kinase-tagged T7 phage strains were prepared in an E. coli host derived from the BL21 strain. E. coli were grown to log-phase and infected with T7 phage and incubated with shaking at 32° C. until lysis. The lysates were centrifuged and filtered to remove cell debris. The remaining kinases were produced in HEK-293 cells and subsequently tagged with DNA for qPCR detection. Streptavidin-coated magnetic beads were treated with biotinylated small molecule ligands for 30 minutes at room temperature to generate affinity resins for kinase assays. The liganded beads were blocked with excess biotin and washed with blocking buffer (SeaBlock (Pierce), 1% BSA, 0.05% Tween 20, 1 mM DTT) to remove unbound ligand and to reduce non-specific binding. Binding reactions were assembled by combining kinases, liganded affinity beads, and test compounds in 1× binding buffer (20% SeaBlock, 0.17×PBS, 0.05% Tween 20, 6 mM DTT). Test compounds were prepared as 111× stocks in 100% DMSO. Kds were determined using an 11-point 3-fold compound dilution series with three DMSO control points. All compounds for Kd measurements are distributed by acoustic transfer (non-contact dispensing) in 100% DMSO. The compounds were then diluted directly into the assays such that the final concentration of DMSO was 0.9%. All reactions performed in polypropylene 384-well plate. Each was a final volume of 0.02 ml. The assay plates were incubated at room temperature with shaking for 1 hour and the affinity beads were washed with wash buffer (1×PBS, 0.05% Tween 20). The beads were then re-suspended in elution buffer (1×PBS, 0.05% Tween 20, 0.5 μM nonbiotinylated affinity ligand) and incubated at room temperature with shaking for 30 minutes. The kinase concentration in the eluates was measured by qPCR.
(§3) Compound handling: An 11-point 3-fold serial dilution of each test compound was prepared in 100% DMSO at 100× final test concentration and subsequently diluted to 1× in the assay (final DMSO concentration=1%). Most Kds were determined using a compound top concentration=30,000 nM. If the initial Kd determined was <0.5 nM (the lowest concentration tested), the measurement was repeated with a serial dilution starting at a lower top concentration.
(§4) Binding constants: Binding constants (Kds) were calculated with a standard dose-response curve using the Hill equation: […]
(§5) The Hill Slope was set to −1.
(§6) Curves were fitted using a non-linear least square fit with the Levenberg-Marquardt algorithm.

CDK8 = target: T2, CDK8 (Homo sapiens, UniProt P49336); assay: Kinase competition binding assay (Kd, qPCR readout), CDK8; settings: in vitro binding; 11-point 3-fold dilution series; read-out: pKd (CDK8) (converted)
T2 construct: made in house; host or cells: E. coli BL21-derived host (T7 phage display) or HEK-293 cells
Experimental: as §1, §2, §3, §4, §5, §6

T1 sequence (Q9BWU1 whole entry): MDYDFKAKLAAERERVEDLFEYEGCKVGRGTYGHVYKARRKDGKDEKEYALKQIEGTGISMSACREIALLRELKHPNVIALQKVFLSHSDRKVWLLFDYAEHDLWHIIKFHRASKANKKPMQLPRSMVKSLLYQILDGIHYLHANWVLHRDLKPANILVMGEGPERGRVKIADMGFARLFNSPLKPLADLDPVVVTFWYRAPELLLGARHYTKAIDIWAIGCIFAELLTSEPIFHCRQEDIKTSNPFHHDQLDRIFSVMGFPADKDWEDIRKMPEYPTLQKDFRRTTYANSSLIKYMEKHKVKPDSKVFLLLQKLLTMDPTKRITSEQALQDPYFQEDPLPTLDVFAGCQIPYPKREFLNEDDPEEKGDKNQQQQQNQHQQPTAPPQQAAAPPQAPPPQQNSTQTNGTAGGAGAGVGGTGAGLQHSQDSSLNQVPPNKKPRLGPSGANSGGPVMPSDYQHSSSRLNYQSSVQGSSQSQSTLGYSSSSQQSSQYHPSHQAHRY
T2 sequence (P49336 whole entry): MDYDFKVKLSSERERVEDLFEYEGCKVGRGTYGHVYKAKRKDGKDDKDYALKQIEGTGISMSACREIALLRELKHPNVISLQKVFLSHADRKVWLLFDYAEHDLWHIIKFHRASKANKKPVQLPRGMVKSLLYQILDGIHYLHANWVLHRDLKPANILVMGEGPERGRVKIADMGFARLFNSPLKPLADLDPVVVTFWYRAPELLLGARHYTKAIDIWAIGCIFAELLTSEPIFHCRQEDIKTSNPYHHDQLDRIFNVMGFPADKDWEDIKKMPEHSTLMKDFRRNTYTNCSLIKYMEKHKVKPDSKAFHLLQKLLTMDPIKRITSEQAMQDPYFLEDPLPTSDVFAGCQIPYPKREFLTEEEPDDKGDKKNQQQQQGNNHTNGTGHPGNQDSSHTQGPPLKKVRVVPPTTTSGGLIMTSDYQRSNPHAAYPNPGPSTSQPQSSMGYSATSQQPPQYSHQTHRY

Row | Kd (CDK19) [nM] | Kd (CDK8) [nM] | SMILES
1 | 200 | 631 | CN(C)C(=O)Cn1cnc(C(=O)NC2CCN(c3snc4ccccc34)CC2)c1 [Compound 7, N-(1-(benzo[c]isothiazol-3-yl)piperidin-4-yl)-1-(2-(dimethylamino)-2-oxoethyl)-1H-imidazole-4-carboxamide]
2 | 100 | 316 | O=C(NC1CCN(c2snc3ccccc23)CC1)c1cn(CC2COC2)cn1 [Compound 10, N-(1-(benzo[c]isothiazol-3-yl)piperidin-4-yl)-1-(oxetan-3-ylmethyl)-1H-imidazole-4-carboxamide]
3 | 79.4 | 200 | O=C(NC1CCN(c2snc3ccccc23)CC1)c1cn(Cc2cnccn2)cn1 [Compound 5, N-(1-(benzo[c]isothiazol-3-yl)piperidin-4-yl)-1-(pyrazin-2-ylmethyl)-1H-imidazole-4-carboxamide]
4 | 100 | 501 | O=C(NC1CCN(c2snc3ccccc23)CC1)c1cn(Cc2ncccn2)cn1 [Compound 11, N-(1-(benzo[c]isothiazol-3-yl)piperidin-4-yl)-1-(pyrimidin-2-ylmethyl)-1H-imidazole-4-carboxamide]
5 | 158 | 398 | Cn1cnc(C(=O)NC2CCN(c3snc4ccccc34)CC2)c1 [Compound 3, N-(1-(benzo[c]isothiazol-3-yl)piperidin-4-yl)-1-methyl-1H-imidazole-4-carboxamide]
6 | 1260 | 3980 | CN(C)CCn1cnc(C(=O)NC2CCN(c3snc4ccccc34)CC2)c1 [Compound 9, N-(1-(benzo[c]isothiazol-3-yl)piperidin-4-yl)-1-(2-(dimethylamino)ethyl)-1H-imidazole-4-carboxamide]

The remaining lines, values behind:

Row | SMILES | Kd (CDK19) [nM] | Kd (CDK8) [nM]
7 | Cn1cnc(C(=O)NC2CCN(c3snc4ccc(F)cc34)CC2)c1 [Compound 4, N-(1-(5-fluorobenzo[c]isothiazol-3-yl)piperidin-4-yl)-1-methyl-1H-imidazole-4-carboxamide] | 50.1 | 63.1
8 | O=C(NC1CCN(c2snc3ccc(F)cc23)CC1)c1cn(Cc2cnccn2)cn1 [Compound 6, N-(1-(5-fluorobenzo[c]isothiazol-3-yl)piperidin-4-yl)-1-(pyrazin-2-ylmethyl)-1H-imidazole-4-carboxamide] | 20 | 25.1
9 | CNC1CCN(c2snc3ccccc23)CC1 [Compound 1, 1-(benzo[c]isothiazol-3-yl)-N-methylpiperidin-4-amine] | 31600 | 31600
10 | CN(C)C(=O)Cn1cnc(C(=O)NC2CCN(c3snc4ccc(F)cc34)CC2)c1 [Compound 8, 1-(2-(dimethylamino)-2-oxoethyl)-N-(1-(5-fluorobenzo[c]isothiazol-3-yl)piperidin-4-yl)-1H-imidazole-4-carboxamide] | 316 | 501
11 | CC(=O)NC1CCN(c2snc3ccccc23)CC1 [Compound 2, N-(1-(benzo[c]isothiazol-3-yl)piperidin-4-yl)acetamide] | 6310 | 10000
